According to PMC7278979, “Ellagic Acid Controls Cell Proliferation and Induces Apoptosis in Breast Cancer Cells via Inhibition of Cyclin-Dependent Kinase 6” (International Journal of Molecular Sciences, 2020):

Legend:
MCF-7 cells [1] = experiment: Apoptosis assay (Annexin-V staining, flow cytometry); assay type: cell-based, human; conditions: MCF-7, IC50 concentration of EA, 48 h
CDK6 [2] = experiment: CDK6 expression study (immunoblotting); assay type: cell-based, human; conditions: EA-treated vs vehicle control, immunoblot
Method: The cell lysates of EA-treated/untreated MCF-7 and MDA-MB-231 cell lines were prepared using RIPA cell lysis buffer (Thermo Fisher Scientific (USA)) and total protein was isolated. The amount of protein was quantified by a BCA-protein estimation kit. Nearly, 50–60 μg of total protein was subjected for SDS-PAGE, and obtained bands were blotted to polyvinylidene fluoride membrane. The protein of interest was identified using respective primary antibodies and horseradish peroxidase (HRP) conjugated secondary IgG using the luminol method.

CDK6 [3] = biological target: T1, CDK6 (Homo sapiens, UniProt Q00534); experiment: Isothermal titration calorimetry of EA with CDK6; conditions: ITC, 25 °C, one binding site model; read-out: Ka (binding constant) (converted)
T1 construct: The 981-bp coding region (326 amino acids) was amplified by PCR from plasmid pcDNA containing the CDK6 gene; His-tag; made in house; host or cells: E. coli BL21 (codon+), pET28a+ (NcoI/XhoI)
T1 sequence (Q00534 whole entry): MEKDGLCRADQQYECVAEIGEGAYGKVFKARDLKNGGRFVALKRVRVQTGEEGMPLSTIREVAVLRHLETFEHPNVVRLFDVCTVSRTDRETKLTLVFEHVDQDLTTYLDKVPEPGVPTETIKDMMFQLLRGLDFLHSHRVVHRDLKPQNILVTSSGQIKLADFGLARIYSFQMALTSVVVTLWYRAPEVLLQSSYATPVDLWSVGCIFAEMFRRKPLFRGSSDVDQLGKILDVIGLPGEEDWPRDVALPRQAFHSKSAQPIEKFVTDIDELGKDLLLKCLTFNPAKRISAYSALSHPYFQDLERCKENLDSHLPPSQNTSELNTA
Method: ITC measurements were carried out at 25 °C using a VP-ITC microcalorimeter (MicroCal, Inc, GE, MicroCal, USA). The sample cell was filled with 15–20 µM CDK6 and 500 µM EA solution was filled in the syringe. An automated titration was carried out with (including a first false injection of 2 μL) a successive injection of 10 μL EA solution into a CDK6 sample cell at a 260 s interval with 320 rpm stirring speed. For analysis, the heat of dilution of EA in the sample buffer was subtracted from the titration data. MicroCal Origin 8.0 was used to analyze the stoichiometry of binding (n), enthalpy change (ΔH), an association constant (Ka).

MDA-MB-231 cells [4] = experiment: Cell viability MTT assay; assay type: cell-based; conditions: Homo sapiens, MDA-MB-231, 48 h (Figure 8 legend; method says 72 h), mean ± SD n = 3
Method: (§1) Cell viabilities of cancer cells with or without EA were evaluated using MTT assay. Briefly, the selected cells (MCF-7 and MDA-MB-231) were seeded in a 96-well (5000–6000 cells/well) culture plate. Overnight grown cells were incubated with EA (0–250 μM) for 72 h in a CO2 incubator, at 37 °C. After a stipulated time of treatment, 20 µL of MTT (from 5 mg/mL stock solution in PBS, pH 7.4) was added to each treatment well of 96-well plate, and plates with MTT solution were incubated additionally for 4–5 h, in the CO2 incubator. Lastly, the formazan were solubilized by adding 100 µL of DMSO to each well. The absorbance (A) of the dissolved purple reaction solution was measured at 570 nm. Absorption readings were converted into percent cell viability and used to estimate 50% inhibitory concentration (IC50) of EA for selected cancer cells.

MCF-7 cells [5] = experiment: Cell viability MTT assay; assay type: cell-based; conditions: Homo sapiens, MCF7, MCF-7, 48 h (Figure 8 legend; method says 72 h), mean ± SD n = 3
Method: as §1

CDK6 [6] = biological target: T1, CDK6; experiment: ATPase enzyme inhibition assay (malachite green); assay type: biochemical; conditions: CDK6 1 µM, ATP 50 µM, 25 °C, 1 h, AAT Bioquest calculator
Method: ATPase assay was performed to see the CDK6 inhibitory activity of EA [57]. For a typical kinase reaction, freshly prepared ATP (50 µM) was incubated with CDK6 (1 µM) in a reaction volume of 100 μL and incubated at 25 °C for 1 h. Similar reactions were set up with the increasing concentration of EA. Malachite green (200 μL) was further added to the reaction mixture to stop the reaction followed by incubation of samples at room temperature for 20–25 min for the development of color. The absorbance of the final reaction product was measured spectrophotometrically at 620 nm.

CDK6 [7] = biological target: T1, CDK6; experiment: Fluorescence binding (quenching) study with recombinant CDK6; conditions: for Ksv: Stern-Volmer plot; for ΔG°: van 't Hoff equation
Method: To study the binding affinity of EA with the recombinant CDK6, a fluorescence binding study was performed. CDK6 was titrated with the EA and corresponding emission spectra were recorded in the range of 300–400 nm after carrying out excitation at 280 nm. The inner filter effect was corrected for the obtained intensities. Fluorescence emission spectra were analyzed by the Stern-Volmer equation to find Stern-Volmer constant (Ksv) and modified Stern-Volmer equation to estimate the binding constant (K) and the number of binding sites (n). Other binding features were estimated by our previously described protocol.
With each reaction, changes in enthalpy and entropy are associated, which are evidence of the type of reaction taking place. Equation (1) (“van ’t Hoff equation”) was employed to calculate the thermodynamic parameters associated with this binding, (1) ΔG°=−RTLnK=ΔH°−TΔS°

MDA-MB-231 cells [8] = experiment: Colony formation assay; assay type: cell-based, human; conditions: MDA-MB-231, IC50 concentration of EA, 10–12 days, vs vehicle control
Method: (§2) To perceive the effect of EA treatment on the colonogenic potential of selected cell lines colony formation studies were performed as described previously. Briefly, ~1500–2000 (MCF-7/MDA-MB-231 cells) cells/well were seeded (in triplicates) in each well of a 6-well cell culture plate. The cells were grown in complete cell growth medium for 48 h and incubated with respective IC50 concentrations of EA for 10–12 days, (at 37 °C, in a 5% CO2 incubator). On the other hand, the control cells were incubated with vehicle control (DMSO) under similar experimental conditions. After 10–12 days, the colonies of cells were fixed with 100% methanol and subsequently stained using a 0.4% crystal violet solution (prepared in 25% methanol. Finally, the colonies obtained after staining were photographed, quantified, plotted, and analyzed by comparing with vehicle control.

MCF-7 cells [9] = experiment: Colony formation assay; assay type: cell-based, human; conditions: MCF-7, IC50 concentration of EA, 10–12 days, vs vehicle control
Method: as §2

MDA-MB-231 cells [10] = experiment: Apoptosis assay (Annexin-V staining, flow cytometry); assay type: cell-based, human; conditions: MDA-MB-231, IC50 concentration of EA, 48 h
[11] = van 't Hoff plot over 298, 301, 303 K (same value printed at each temperature)

O=c1oc2c(O)c(O)cc3c(=O)oc4c(O)c(O)cc1c4c23 [EA, ellagic acid]
Annexin-V positive cells (apoptosis) (MCF-7 cells [1]): 23.3% | expression of CDK6 (CDK6 [2]; MCF-7 cells): decreases the expression of CDK6 | expression of CDK6 (CDK6 [2]; MDA-MB-231 cells): decreases the expression of CDK6 | Kd (CDK6 [3]): 39.7 µM | IC50 (MDA-MB-231 cells [4]): 20.5 ± 1.22 µM | IC50 (MCF-7 cells [5]): 29.1 ± 1.15 µM | IC50 (CDK6 [6]): 3.05 µM | Kq (bimolecular quenching rate constant) (CDK6 [7]; 298 K): 5.8 10^12 M^−1s^−1 | TΔS° (CDK6 [7]; 298 K): 84.60 kcal/mol | Kq (bimolecular quenching rate constant) (CDK6 [7]; 301 K): 14.2 10^12 M^−1s^−1 | TΔS° (CDK6 [7]; 301 K): 85.45 kcal/mol | Kq (bimolecular quenching rate constant) (CDK6 [7]; 303 K): 19.8 10^12 M^−1s^−1 | TΔS° (CDK6 [7]; 303 K): 86.02 kcal/mol | Ksv (CDK6 [7]; 298 K): 5.8 10^4 M^−1 | Ksv (CDK6 [7]; 301 K): 14.2 10^4 M^−1 | Ksv (CDK6 [7]; 303 K): 19.8 10^4 M^−1 | binding constant (K) (CDK6 [7]; fluorescence quenching, modified Stern-Volmer, 303 K): 2.6e+07 M⁻¹ | Kd (CDK6 [7]; fluorescence quenching, modified Stern-Volmer, 303 K, read-out: binding constant (K)): 0.1 µM | n (number of binding sites) (CDK6 [7]; modified Stern-Volmer, 298 K): 1.32 | Kd (CDK6 [7]; modified Stern-Volmer, 298 K, read-out: K (binding constant) (converted)): 0.345 µM | n (number of binding sites) (CDK6 [7]; modified Stern-Volmer, 301 K): 1.16 | Kd (CDK6 [7]; modified Stern-Volmer, 301 K, read-out: K (binding constant) (converted)): 0.154 µM | n (number of binding sites) (CDK6 [7]; modified Stern-Volmer, 303 K): 1.41 | Kd (CDK6 [7]; modified Stern-Volmer, 303 K, read-out: K (binding constant) (converted)): 0.0385 µM | ΔG° (CDK6 [7]; 298 K): -8.73 kcal/mol | ΔG° (CDK6 [7]; 301 K): -9.59 kcal/mol | ΔG° (CDK6 [7]; 303 K): -10.16 kcal/mol | ΔH° (CDK6 [7]; [11]): 75.8657 kcal/mol | ΔS (CDK6 [7]; [11]): 283.9087 cal.mol^−1K^−1 | number of colonies (MDA-MB-231 cells [8]): decreases the number of colonies significantly | number of colonies (MCF-7 cells [9]): decreases the number of colonies significantly | Annexin-V positive cells (apoptosis) (MDA-MB-231 cells [10]): 27.9%
